According to patent publication US20250114368A1, “COMPOSITIONS AND METHODS RELATING TO PEDIATRIC NEUROMUSCULAR DISEASES AND NEUROGENERATIVE DISORDERS” (Ann and Robert H. Lurie Children's Hospital of Chicago, priority 2023, published 2025):
Entries after “also recorded” stand apart in the source; their conditions may differ.

Columns and labels:
[1] = system: human SMA iPSC-derived motor neurons; experiment: Degeneration of human SMA iPSC-derived motor neurons (TuJ1 and Isl1-positive motor neurons as percentage of DAPI positive cells); type: cell-based; conditions: week 3 to week 6 in culture
Text: FIGS. 8A-8M: Inhibition of Cdk5 signaling pathway decreases the degeneration of human SMA iPSC-derived motor neurons. (A-L) Immunostaining of human iPSC-derived motor neurons with antibodies recognizing neuronal marker TuJ1 (green in A-L), motor neuron marker Isl1 (red in A-L), and nucleus marker DAPI (blue in A-L). […] (M) Quantification of TuJ1 and Isl1-positive motor neurons as a percentage of all DAPI positive cells in a human iPSC model of SMA treated with inhibitors of Cdk5 signaling. […] Data are from four independent experiments and are mean±SEM. ** P<0.01, *** p<0.001, **** P<0.0001, Student's t test.
(§1) Human SMA iPSC and Mouse Motor Neuron Culture. Human iPSCs were generated and differentiated as described in the Examples. Briefly, primary fibroblasts were isolated from de-identified type I SMA patients and their unaffected relatives, infected with lentiviral constructs expressing OCT4, SOX2, NANOG, and LIN28 or episomally expressed reprogramming plasmids to generate iPSCs. Retinoic acid, sonic hedgehog, cAMP, ascorbic acid, brain-derived neurotrophic factor (BDNF) and glial cell line-derived neurotrophic factor (GDNF) were used to induce iPSC spheres to differentiate into motor neurons. […] Cell death was detected by the in situ cell death detection TMR red TUNEL (Terminal Transferase dUTP Nick End Labeling) kit. […]

[2] = system: SMA non-integrating iPSC-derived motor neurons; experiment: Motor neuron degeneration in non-integrating iPSC SMA model (Isl1+ and TuJ1+ motor neurons as percentage of DAPI-positive cells); type: cell-based, human; conditions: 10 μM
Text: FIGS. 9A-C: (A) The increase of Cdk5 kinase activity in E18.5 SMA mouse spinal cord is not significant. Endogenous Cdk5 was immunoprecipitated from spinal cord lysates of E18.5 WT and SMA mice and measured kinase activity of phosphorylating Histone H1 with ^32P-γ-ATP. The same levels of Cdk5 and purified Histone H1 used in kinase assay reactions were monitored by Western blotting. Data are mean±SEM, Student's t test (n=12, P=0.0875). […] Endogenous Cdk5 was immunoprecipitated from motor neurons differentiated from WT and SMA non-integrating iPSCs. Kinase activities were quantified by the phosphorylation of Histone H1 with ^32P-γ-ATP. The same levels of Cdk5 and Histone H1 were monitored by Western blot. Data are mean±SEM, Student's t test (n=12, P<0.0001). […] Calpain inhibitor Calpeptin (10 μM) was applied to WT and SMA non-integrating iPSC-derived motor neurons. The number of Isl1+ and TuJ1+motor neurons as a percentage of all DAPI-positive cells was quantified from 1490 motor neurons in four independent experiments and are mean±SEM. ** p=0.0045, Student's t test.
Human SMA iPSC and Mouse Motor Neuron Culture. Human iPSCs were generated and differentiated as described in the Examples. […] Cell death was detected by the in situ cell death detection TMR red TUNEL (Terminal Transferase dUTP Nick End Labeling) kit. […]

SMA iPSC motor neurons [3] = experiment: iPSC motor neuron degeneration measured by choline acetyltransferase (ChAT) staining; type: cell-based, human; conditions: 10 μM
Protocol: (§2) Calpeptin (10 μM) (A) was used to inhibit calpain activity, and 300 nM BML259 (B) was used to inhibit Cdk5 activity in control and SMA iPSC motor neurons. Data are from four independent experiments and are mean±SEM. ** p<0.01, *** p<0.001, Student's t test. […] Levels of different mRNA in each sample are calculated as relative to gapdh mRNA. The level of gapdh mRNA is presented as relative to the average of four samples. The measurement of each sample was repeated three times and four sets of mice were used. Results are mean±SEM. ** p<0.01, Student's t test.
as §1

SMA motor neuron = experiment: Dosage effect of BML259 on primary mouse motor neurons: toxic effect (cell morphology and viability, bright field microscope); type: cell-based; conditions: two days
Text: (§3) Human SMA iPSC and Mouse Motor Neuron Culture. Human iPSCs were generated and differentiated as described in the Examples. Briefly, primary fibroblasts were isolated from de-identified type I SMA patients and their unaffected relatives, infected with lentiviral constructs expressing OCT4, SOX2, NANOG, and LIN28 or episomally expressed reprogramming plasmids to generate iPSCs. Retinoic acid, sonic hedgehog, cAMP, ascorbic acid, brain-derived neurotrophic factor (BDNF) and glial cell line-derived neurotrophic factor (GDNF) were used to induce iPSC spheres to differentiate into motor neurons. Primary neurons from mouse spinal cords were cultured in Neurobasal (Life Technologies) supplemented with B27 (Life Technologies) as described. Briefly, spinal cords from E12.5 mouse embryos were dissected out and dissociated with 0.25% trypsin. After enriching motor neurons with Optiprep density gradient centrifugation and BSA cushion, cells were seeded on glass cover slips coated with 20 μg/ml Poly-L-Lysine (PLL) (Sigma) and 8 μg/ml Laminin (Sigma), and grown in the presence of […] (PeproTech). Cell death was detected by the in situ cell death detection TMR red TUNEL (Terminal Transferase dUTP Nick End Labeling) kit. Cdk5 inhibitor BML259 (300 nM) (Cayman Chemical) and calpain inhibitor Calpeptin (10 μM) (Tocris Bioscience) were applied from week 3 to 6 into iPSC motor neuron medium to inhibit Cdk5 signaling.
(§4) Different concentrations of Cdk5 inhibitor BML259 were applied on primary motor neurons from wild type and SMA mice. After two days, treated and untreated cells were compared to identify potential toxic effects of causing additional cell death by checking cell morphology and viability using a bright field microscope.

WT motor neuron = experiment: as above; type: cell-based; conditions: two days
Text: as §3, §4

SMA motor neurons = experiment: TUNEL staining of degenerating primary spinal motor neurons cultured from Δ7 SMA mice; type: cell-based, mouse; conditions: 300 nM applied at 3 DIV, assayed on 6 DIV
Text: FIGS. 4A-4D: Mitigating aberrant Cdk5 activation ameliorates the degeneration of motor neurons from SMA mice. (A-B) Primary spinal motor neurons from SMA mice cultured 6 days in vitro (6 DIV) were stained by antibodies recognizing motor neuron marker Isl1 (magenta in A, B) and pan-neuronal marker TuJ1 (green in A). DAPI nuclear staining marks all cells in the culture. (C) Western blot analysis of Cdk5 knockdown in motor neurons treated with shRNA. […] Motor neurons were infected with lentivirus on 4 DIV and cultured for another 3 days before Western blot analysis. Two examples of Cdk5 shRNA knockdown were shown, with the expression of GAPDH as loading control. (D) Quantification of TUNEL+ degenerating motor neurons from WT and SMA mice. […]
Human SMA iPSC and Mouse Motor Neuron Culture. […] Cell death was detected by the in situ cell death detection TMR red TUNEL (Terminal Transferase dUTP Nick End Labeling) kit. […]
Mitigating Aberrant Cdk5 Activation Reduces the Degeneration of SMA Mouse Motor Neurons. Experiments were conducted during development of embodiments herein to determine whether reducing aberrant Cdk5 activation in SMA conditions serve to ameliorate motor neuron degeneration; the degeneration of motor neurons cultured from Δ7 SMA mice and control mice by TUNEL staining was monitored. […]

SMA iPSC motor neurons [4] = experiment: iPSC motor neuron degeneration measured by TUNEL; type: cell-based, human; conditions: 300 nM
Protocol: as §2, §1

Row | Structure (SMILES) | Degeneration of motor neurons (TuJ1 and Isl1-positive, % of DAPI positive cells) in human SMA iPSC culture ([1]; 10 μM) | Motor neuron degeneration in non-integrating iPSC SMA model [2] | iPSC motor neuron degeneration by ChAT staining (SMA iPSC motor neurons [3]) | Toxic Effect on SMA motor neuron (SMA motor neuron; 50 nM) | Toxic Effect on SMA motor neuron (SMA motor neuron; 150 nM) | Toxic Effect on SMA motor neuron (SMA motor neuron; 300 nM) | Toxic Effect on SMA motor neuron (SMA motor neuron; 450 nM) | Toxic Effect on SMA motor neuron (SMA motor neuron; 600 nM) | Toxic Effect on WT motor neuron (WT motor neuron; 50 nM) | Toxic Effect on WT motor neuron (WT motor neuron; 150 nM) | Toxic Effect on WT motor neuron (WT motor neuron; 300 nM) | Toxic Effect on WT motor neuron (WT motor neuron; 450 nM) | Toxic Effect on WT motor neuron (WT motor neuron; 600 nM) | TUNEL+ degenerating motor neurons from SMA mice (SMA motor neurons) | Degeneration of motor neurons (TuJ1 and Isl1-positive, % of DAPI positive cells) in human SMA iPSC culture ([1]; 300 nM) | iPSC motor neuron degeneration by TUNEL (SMA iPSC motor neurons [4])
1 | CCCC[C@@H](C=O)NC(=O)[C@H](CC(C)C)NC(=O)OCc1ccccc1 [Calpeptin] | alleviated the degeneration of Isl1-positive motor neurons; also recorded: significantly reduces the degeneration of motor neurons | significantly reduces motor neuron degeneration | reduces iPSC motor neuron degeneration |  |  |  |  |  |  |  |  |  |  |  |  | 
2 | CC(C)c1cnc(NC(=O)Cc2ccccc2)s1 [BML259, N-(5-isopropyl-thiazol-2-yl)phenylacetamide] |  |  |  | no | no | no | strong | very strong | no | no | no | weak | strong | significantly reduced the degeneration of SMA motor neurons | alleviated the degeneration of Isl1-positive motor neurons; also recorded: significantly reduces the degeneration of motor neurons | reduces iPSC motor neuron degeneration
